{"source": "patent US20200283381A1", "about": "“SOLID STATE FORMS OF ELAFIBRANOR” (TEVA PHARMACEUTICALS INTERNATIONAL GMBH, priority 2017, published 2020)", "key": {"[1]": {"assay": "Hygroscopicity (water absorption, European Pharmacopoeia 7.0, chapter 01/2008:51100)", "assay_type": "physicochemical", "conditions": "non-hygroscopic = less than 0.1% (w/w) of water absorption after 24 h exposure to 25° C./80% RH", "experimental": "As used herein the term non-hygroscopic in relation to crystalline Elafibranor refers to less than 0.1% (w/w) of water absorption after 24 h exposure to 25° C./80% RH, determined according to European Pharmacopoeia 7.0, chapter 01/2008:51100. Water can be for example atmospheric water."}, "[2]": {"assay": "Thermodynamic (polymorphic) stability: conversion to other solid state forms, measured by XRPD", "assay_type": "physicochemical", "conditions": "after exposure to conditions of up to 25° C./100% RH for at least 1 month, as measured by XRPD; stable = less than 20% conversion", "experimental": "The crystalline Elafibranor as described above in (a)-(f) may be anhydrous. The crystalline Elafibranor may be substantially free of other solid state forms of Elafibranor. […] In some embodiments, the conversion is 1%-20%, 1%-10% or 1%-5%.\nMelting peak of crystalline form I of Elafibranor is in the range of about 154° C. and about 164° C., for example about 158° C. and about 160° C., preferably at about 159° C. as measured by DSC. […] Thermodynamic stability in relation to crystalline Elafibranor form I refers to less than 20%, less than 10%, less than 5%, less than 2%, less than 1%, or less than 0.5% conversion of crystalline Elafibranor form I to any other solid state form of Elafibranor after exposure of form I to conditions of up to 25° C./100% RH for at least 1 month, as measured by XRPD. In some embodiments, the conversion is 1%-20%, 1%-10% or 1%-5%.\nThermodynamic stability in relation to crystalline Elafibranor form II refers to less than 20%, 10%, 5%, 2%, 1%, or 0.5% conversion of crystalline Elafibranor form II to any other solid state form of Elafibranor after exposure of form II to conditions of up to 25° C./100% RH for at least 1 month, as measured by XRPD. In some embodiments, the conversion is 1%-20%, 1%-10% or 1%-5%.\nSample after being powdered in a mortar and pestle is applied directly on a silicon plate holder. […]"}}, "data": [{"compound": "CSc1ccc(C(=O)/C=C/c2cc(C)c(OC(C)(C)C(=O)O)c(C)c2)cc1", "note": "[form I, 2-(2,6-dimethyl-4-{3-[4-(methylsulfanyl)phenyl]-3-oxoprop-1-en-1-yl}phenoxy)-2-methylpropanoic acid]", "values": [{"measurement": "hygroscopicity", "setting": "[1]", "result": "non-hygroscopic"}, {"measurement": "thermodynamic stability (conversion to any other solid state form of Elafibranor)", "setting": "[2]", "result": "thermodynamically stable"}]}]}
